# Results reported in patent US11690824B2, “Antibacterial compounds” (THE GENERAL HOSPITAL CORPORATION, priority 2018, dated 2023).
# Where two headings read alike, the source gives them in different places.
# Columns and labels:
# [1] = test system: S. aureus (MRSA) MW2; assay: Minimal inhibitory concentration (MIC) assay, micro-dilution; format: cell-based; conditions: for antibiotic activity / potency relative to nTZDpa: growing S. aureus cells
# Excerpt: (§1) Bacterial strains, growth conditions, and persister isolation. Methicillin-resistant S. aureus strains, MW2 BAA-1707, ATCC 33591, and JE2, methicillin-susceptible S. aureus strains, NCTC 8325, Newman, and ATCC 29213, vancomycin-resistant S. aureus strain, VRS1, Enterococcus faecium E007, vancomycin-resistant E. faecium strains, C68,^7 WB312, and WC196, Klebsiella pneumoniae WGLW2 (BEI Resources, Manassas, Va., USA), Acinetobacter baumannii ATCC 17978, Pseudomonas aeruginosa PA14, and Enterobacter aerogenes ATCC 13048 were used to test antimicrobial activity (Table 1). S. aureus strains were grown in tryptic soy broth (TSB) (BD, Franklin Lakes, N.J., USA), and E. faecium was grown in brain-heart infusion (BHI) broth (BD, Franklin Lakes, N.J., USA) at 37° C. K. pneumoniae, A. baumannii, P. aeruginosa, and E. aerogenes were grown in Luria Bertani (LB) broth (BD, Franklin Lakes, N.J., USA) at 37° C.
# (§2) Minimal inhibitory concentration (MIC) assay. The MICS of antibiotics were determined by the standard micro-dilution method recommended by the Clinical and Laboratory Standards Institute. MIC assays were conducted in biological triplicate.
# [2] = test system: MRSA MW2; assay: Antibiotic synergy test (checkerboard); format: cell-based, S. aureus; conditions: nTZDpa in combination with the named antibiotic, synergy if FICI ≤ 0.5
# Description: Antibiotic synergy test. Antibiotic synergism was evaluated by the checkerboard method. Briefly, 2-fold serial dilutions of nTZDpa were combined with 2-fold serial dilutions of each other antibiotic, which created an 8×8 matrix in a 96-well microtiter plate. The fractional inhibitory concentration index (FICI) was calculated as follows: FICI=MIC of compound A in combination/MIC of compound A alone+MIC of compound B in combination/MIC of compound B alone. The interaction between two compounds was defined, as follows: synergy if FICI≤0.5, no interaction if 0.5<FICI≤4, and antagonism if FICI>4.
# [3] = test system: human erythrocytes; assay: Human blood hemolysis; format: cell-based; conditions: human erythrocytes
# Description: Human blood hemolysis. Hemolytic activity was evaluated as described in a previous study. Briefly, 100 μL of 4% human erythrocytes (Rockland Immunochemicals, Limerick, Pa., USA) was added to 100 μL of 2-fold serial dilutions of compounds in PBS, 0.2% DMSO (negative control), or 2% Triton-X 100 (positive control) in a 96-well plate. The 96-well plate was incubated at 37° C. for 1 h and then centrifuged at 500× g for 5 min. 50 μL of the supernatant was transferred to a fresh 96-well plate, and absorbance of supernatants was measured at 540 nm. Percent hemolysis was calculated using the following equation: (A540 nm of compound treated sample−A540 nm of 0.1% DMSO treated sample)/(A540 nm of 1% Triton X-100 treated sample−A540 nm of 0.1% DMSO treated sample)×100. HC50 (concentration of a compound causing 50% hemolysis) was determined using SigmaPlot 10.0 (Systat Software Inc., San Jose, Calif., USA).
# [4] = test system: E. aerogenes ATCC 13048; assay: MIC assay; format: cell-based, Enterobacter aerogenes; conditions: E. aerogenes ATCC 13048
# Excerpt: as §1, §2
# [5] = test system: K. pneumoniae WGLW2; assay: MIC assay; format: cell-based, Klebsiella pneumoniae; conditions: K. pneumoniae WGLW2
# Excerpt: as §1, §2
# [6] = test system: P. aeruginosa PA14; assay: MIC assay; format: cell-based, Pseudomonas aeruginosa; conditions: P. aeruginosa PA14
# Excerpt: as §1, §2
# [7] = test system: A. baumannii ATCC 17978; assay: MIC assay; format: cell-based, Acinetobacter baumannii; conditions: A. baumannii ATCC 17978
# Excerpt: as §1, §2
# [8] = test system: E. faecium WB312; assay: MIC assay; format: cell-based, Enterococcus faecium; conditions: E. faecium WB312
# Excerpt: as §1, §2
# [9] = test system: E. faecium C68; assay: MIC assay; format: cell-based, Enterococcus faecium; conditions: E. faecium C68
# Excerpt: as §1, §2
# [10] = test system: E. faecium WC196; assay: MIC assay; format: cell-based, Enterococcus faecium; conditions: E. faecium WC196
# Excerpt: as §1, §2
# [11] = test system: E.faecium E007; assay: MIC assay; format: cell-based, Enterococcus faecium; conditions: E.faecium E007
# Excerpt: as §1, §2
# [12] = test system: S. aureus ATCC 33591; assay: MIC assay; format: cell-based; conditions: S. aureus ATCC 33591
# Excerpt: as §1, §2
# [13] = test system: S. aureus NCTC 8325; assay: MIC assay; format: cell-based; conditions: S. aureus NCTC 8325
# Excerpt: as §1, §2
# [14] = test system: S. aureus Newman; assay: MIC assay; format: cell-based; conditions: S. aureus Newman
# Excerpt: as §1, §2
# [15] = test system: S. aureus JE2; assay: MIC assay; format: cell-based; conditions: S. aureus JE2
# Excerpt: as §1, §2
# [16] = test system: S. aureus ATCC 29213; assay: MIC assay; format: cell-based; conditions: S. aureus ATCC 29213
# Excerpt: as §1, §2
# [17] = test system: S. aureus VRS1; assay: MIC assay; format: cell-based; conditions: S. aureus VRS1
# Excerpt: as §1, §2
# [18] = test system: MRSA MW2 persisters (stationary phase); assay: Persister killing assay; format: cell-based, S. aureus; conditions: 64 μg/mL
# Description: Persister killing assay. […] Persister cells of MRSA MW2 were prepared by growing cultures overnight to stationary phase at 37° C. at 200 rpm and washing 3 times with PBS. 1 mL of ˜2×10^8 CFU/mL MRSA persisters was added to 1 mL of PBS containing 2-fold of the desired concentration of antibiotics in a 96-well assay block (Corning Costar 3960). The assay block was incubated at 37° C., with shaking at 200 rpm. At specific times, […] were removed, washed once with PBS, serially diluted and spot-plated on TSA plates. Colonies were counted to enumerate the number of live cells after overnight incubation at 37° C. These experiments were conducted in biological triplicate.
# [19] = Staphylococcus aureus, MRSA, PPARγ agonists, read-out: MICS against S. aureus MW2
# [20] = Staphylococcus aureus, Example 5, MRSA MW2, read-out: MIC
# [21] = Staphylococcus aureus, Table 3, growing MRSA, read-out: MIC
structure (smiles),measurement,setting,value
"O=C(O)c1c(Cc2ccccc2)c2cc(Cl)ccc2n1Cc1ccc(Cl)cc1 [Compound S12, 3-benzyl-5-chloro-1-(4-chlorobenzyl)-1H-indole-2-carboxylic acid]",antibiotic activity / potency relative to nTZDpa,[1],less potency
"CN(CCOc1ccc(CC2SC(=O)NC2=O)cc1)c1ccccn1 (stereo not drawn) [rosiglitazone, reference compound]",MIC,[1]; [19],> 64 µg/mL
"[H]/N=C(/N)N[C@H]1[C@H](O)[C@@H](O)[C@H](O[C@@H]2O[C@@H](C)[C@](O)(C=O)[C@H]2O[C@@H]2O[C@@H](CO)[C@H](O)[C@@H](O)[C@@H]2NC)[C@@H](N/C(N)=N\[H])[C@@H]1O [Streptomycin, streptomycin]",FICI (fractional inhibitory concentration index),[2],0.37
"Cn1c(C(=O)O)c(Sc2ccccc2)c2cc(Cl)ccc21 [Analog 5, 5-chloro-1-methyl-3-(phenylthio)-1H-indole-2-carboxylic acid]",MIC,[1]; [20],64 µg/mL
"O=C(O)c1c(Oc2ccc(I)cc2)c2cc(Cl)ccc2n1Cc1ccc(Cl)cc1 [Compound 14, 5-chloro-1-(4-chlorobenzyl)-3-(4-iodophenoxy)-1H-indole-2-carboxylic acid]",HC50: median hemolytic concentration,[3],>64 µg/mL
same,MIC,[1]; [21],1 µg/mL
"O=C(O)c1c(Sc2ccccc2)c2cc(Cl)ccc2n1Cc1ccccc1 [S4 (analog 2), 1-benzyl-5-chloro-3-(phenylthio)-1H-indole-2-carboxylic acid]",MIC,[1]; [20],16 µg/mL
"CCc1ccc(CCOc2ccc(CC3SC(=O)NC3=O)cc2)nc1 (stereo not drawn) [pioglitazone, reference compound]",MIC,[1]; [19],> 64 µg/mL
"O=C(O)c1c(Sc2ccc(Cl)cc2)c2cc(Cl)ccc2n1Cc1ccc(Cl)cc1 [Compound 4, 5-chloro-1-(4-chlorobenzyl)-3-((4-chlorophenyl)thio)-1H-indole-2-carboxylic acid]",HC50: median hemolytic concentration,[3],34 µg/mL
same,MIC,[1]; [21],2 µg/mL
"NC[C@H]1O[C@H](O[C@H]2[C@H](O)[C@@H](O[C@H]3O[C@H](CO)[C@@H](O)[C@H](N)[C@H]3O)[C@H](N)C[C@@H]2N)[C@H](N)C[C@@H]1O [Tobramycin, tobaramysin]",FICI (fractional inhibitory concentration index),[2],0.31
"O=C(O)c1c(Oc2ccc(Cl)c(Cl)c2)c2cc(Cl)ccc2n1Cc1ccc(Cl)cc1 [Compound 12, 5-chloro-1-(4-chlorobenzyl)-3-(3,4-dichlorophenoxy)-1H-indole-2-carboxylic acid]",HC50: median hemolytic concentration,[3],38 µg/mL
same,MIC,[1]; [21],1 µg/mL
"O=C(O)c1c(Sc2ccccc2)c2cc(Cl)ccc2n1Cc1cccc(Cl)c1 [Analog 2b, 5-chloro-1-(3-chlorobenzyl)-3-(phenylthio)-1H-indole-2-carboxylic acid]",MIC,"[1]; Example 5, MRSA MW2",same MIC
"O=C(O)c1c(Oc2ccc(Br)cc2)c2cc(Cl)ccc2n1Cc1ccc(Cl)cc1 [Compound 13, 3-(4-bromophenoxy)-5-chloro-1-(4-chlorobenzyl)-1H-indole-2-carboxylic acid]",HC50: median hemolytic concentration,[3],>64 µg/mL
same,MIC,[1]; [21],2 µg/mL
"O=C(O)c1c(Oc2ccccc2)c2cc(Cl)ccc2n1Cc1ccc(Cl)c(Cl)c1 [Compound 10, 5-chloro-1-(3,4-dichlorobenzyl)-3-phenoxy-1H-indole-2-carboxylic acid]",HC50: median hemolytic concentration,[3],>64 µg/mL
same,MIC,[1]; [21],2 µg/mL
"CN(C)[C@@H]1C(O)=C(C(N)=O)C(=O)[C@@]2(O)C(O)=C3C(=O)c4c(O)cccc4[C@@](C)(O)[C@H]3C[C@@H]12 [Tetracycline, tetracycline]",FICI (fractional inhibitory concentration index),[2],1.125
"Cc1onc(-c2ccccc2)c1C(=O)N[C@@H]1C(=O)N2[C@@H]1SC(C)(C)[C@@H]2C(=O)O [Oxa, oxacillin]",Minimum inhibitory concentration,[4],>64 µg/mL
same,Minimum inhibitory concentration,[5],>64 µg/mL
same,Minimum inhibitory concentration,[6],>64 µg/mL
same,Minimum inhibitory concentration,[7],>64 µg/mL
same,Minimum inhibitory concentration,[1]; S. aureus (MRSA) MW2,64 µg/mL
same,Minimum inhibitory concentration,[8],>64 µg/mL
same,Minimum inhibitory concentration,[9],>64 µg/mL
same,Minimum inhibitory concentration,[10],>64 µg/mL
same,Minimum inhibitory concentration,[11],>64 µg/mL
same,Minimum inhibitory concentration,[12],>64 µg/mL
same,Minimum inhibitory concentration,[13],0.5 µg/mL
same,Minimum inhibitory concentration,[14],0.5 µg/mL
same,Minimum inhibitory concentration,[15],64 µg/mL
same,Minimum inhibitory concentration,[16],0.5 µg/mL
same,Minimum inhibitory concentration,[17],>64 µg/mL
"CO[C@H]1/C=C/O[C@@]2(C)Oc3c(C)c(O)c4c(O)c(c(/C=N/N5CCN(C)CC5)c(O)c4c3C2=O)NC(=O)/C(C)=C\C=C\[C@H](C)[C@H](O)[C@@H](C)[C@@H](O)[C@@H](C)[C@H](OC(C)=O)[C@@H]1C [Rifampicin, rifampicin]",FICI (fractional inhibitory concentration index),[2],1
"CC(C)(C)c1ccc(Sc2c(C(=O)O)n(Cc3ccc(Cl)cc3)c3ccc(Cl)cc23)cc1 [Compound 5, 3-((4-(tert-butyl)phenyl)thio)-5-chloro-1-(4-chlorobenzyl)-1H-indole-2-carboxylic acid]",HC50: median hemolytic concentration,[3],26 µg/mL
same,MIC,[1]; [21],2 µg/mL
"O=C(O)c1c(Oc2ccc(Cl)cc2)c2cc(Cl)ccc2n1Cc1ccc(Cl)cc1 [Compound 11, 5-chloro-1-(4-chlorobenzyl)-3-(4-chlorophenoxy)-1H-indole-2-carboxylic acid]",HC50: median hemolytic concentration,[3],>64 µg/mL
same,MIC,[1]; [21],2 µg/mL
"NC[C@H]1O[C@H](O[C@H]2[C@H](O)[C@@H](O[C@H]3O[C@H](CO)[C@@H](O)[C@H](N)[C@H]3O)[C@H](N)C[C@@H]2N)[C@H](O)[C@@H](O)[C@@H]1O [Kanamycin, kanamysin]",FICI (fractional inhibitory concentration index),[2],0.5
"O=C(O)c1c(Oc2ccccc2)c2cc(Cl)ccc2n1Cc1ccc(Cl)cc1 [Compound 6, 5-chloro-1-(4-chlorobenzyl)-3-phenoxy-1H-indole-2-carboxylic acid]",decrease in viability of persisters,[18],3 log
same,HC50: median hemolytic concentration,[3],>64 µg/mL
same,MIC,[1]; [21],4 µg/mL
same,antibiotic activity / potency relative to nTZDpa,[1],equipotent with nTZDpa
"OCc1c(Oc2ccccc2)c2cc(Cl)ccc2n1Cc1ccc(Cl)cc1 [Compound S13, (5-chloro-1-(4-chlorobenzyl)-3-phenoxy-1H-indol-2-yl)methanol]",antibiotic activity / potency relative to nTZDpa,[1],reduction of antibiotic activity
